Legend:
[1] = tested on: IL-1β; experiment: IL-1β secretion (ELISA) in LPS-stimulated THP-1 cells; assay type: cell-based, human
Method: It was prepared in a solution of dimethyl sulfoxide (DMSO), and stored under −20° C. for the experiments in vitro. Human monocytic cell line, THP-1 (90), was purchased from ATCC. The cells were maintained according to the supplier's instructions. Approximately 1×10^5 cells/ml were cultured at 37° C., 5% CO2 for 24 hours in Modified RPMI-1640 Medium (Invitrogen) supplemented with 10% FBS.
Viability of cells was examined under microscope after trypan blue staining. Protein levels of IL-1β secreted into the culture media by the cells were then measured by ELISA and calculated from its standard curve using an assay Kit from R&D Systems according to instructions provided by the supplier.
Statistical Analysis: All data were expressed as a mean±SD. Statistical significance of any difference between the control (LPS) and experimental groups was determined by the Student's t-test. P values between the 2 groups must be at least smaller than 0.05 to be considered statistically significant.
1) Effects of Meisoindigo and NATURA on the expression/secretion of cytokines IL-1β, IL-6, IL-10: The human monocytic THP-1 cells grown exponentially were stimulated with or without 1 μM of lipopolysaccharide (LPS, Sigma), and exposed for 24 hours to different concentrations of Meisoindigo and NATURA (from 31.25 nM and 62.5 nM), respectively. Viability of cells was examined by trypan blue exception assay.

[2] = tested on: scale epithelial cells of mouse-tails; experiment: Mouse-tail model: granular layer formation in scale epithelial cells; assay type: in vivo, Kunming mice; settings: 13 days
Text: (§1) Materials: Meisoindigo was synthesized, purified and its structure characterized by Natrogen Therapeutics, Inc. The purity of the compound was 98.5% as described in the Examples above. A suspension of Meisoindigo was freshly prepared in 0.5% sodium methylcellulose and given orally for the animal tests described below. Other chemicals used in the following experiments were purchased from Sigma.
(§2) Pathogen-free female Kunming mice at 12 weeks of age with body weights from 22 to 25 grams were housed 5 per cage, and given, ad libitum, fresh tap water and commercial rodent pellets. Animal rooms were controlled at 24±2° C. with a relative humidity of 60±5% and a 12 hour light/dark cycle (07:00-19:00 hr).
Effect of Meisoindigo on Epidermal Cell Differentiation in Mouse Tails: Sixty female Kunming mice were randomly divided into 5 groups, 20 in one control group, and 10 in 4 drug-tested groups. Meisoindigo was freshly prepared as a suspension in 0.5% of sodium methylcellulose. The drug was given orally at doses of 50, 100, and 200 mg/kg, respectively, once a day for 13 days. Methotrexate (MTX) was used as a positive control at a dose of 1 mg/kg, i.p. once every 2 days, for the same period of time. The same volume and vehicle for Meisoindigo suspension were used as a negative control. […] Slides were prepared for histological examination as originally described by Bosman et. al., (106). The slides were prepared by cutting the tails into longitudinal sections, and Hematoxylin and Eosin (H&E) stained. The slides were then examined with a light microscope to evaluate the degree of orthokeratosis (OK) and epidermal hyperplasia. The former was done by measuring the horizontal length of the fully developed granular layer stratum granulosum within an individual scale in relation to its total length. Drug activity was defined by the increase of the positive scale cells containing granular layer stratum granulosum between two folliculus pili.

[3] = tested on: mouse vaginal epithelium; experiment: Mitotic index in estrogen-stimulated vaginal epithelium of female mice; assay type: in vivo, Kunming mice; settings: 200.0 mg/kg orally once a day, 3 days; percent of mitotic cells
Text: as §1, §2
Anti-mitotic Effects of Meisoindigo on Mouse Vaginal Epithelium: Sixty Kunming female mice were randomly divided into 5 groups, 20 in one control group, and 10 in 4 drug-tested groups. All mice were given estrogen at a dose of 0.2 mg/animal for 3 days to allow vaginal epithelial cells to develop under the stimulation of estrogen hormone. Meisoindigo was freshly prepared as a suspension in 0.5% of sodium methylcellulose. The drug was given orally at doses of 50, 100, and 200 mg/kg, respectively, once a day for 3 days. Methotrexate (MTX) was used as a positive control at a dose of 1 mg/kg, i.p. once a day for the same period of time. […] The mitotic index (percent of mitotic cells) was calculated.

[4] = tested on: idiopathic inflammatory bowel disease; assay type: in vivo, human
Method: The first diagnosis was performed at North Shore University Hospital Manhasset, Long Island, N.Y. in 1999 by colonoscope. Major symptoms included diarrhea, loose stool and bleeding while their overall condition of health was considered excellent. Clinical-activity index (Table 5) (113) was determined to be between 7 and 8. Their physician prescribed hydrocortisone foam, which they administered for 10 days according to doctor's instructions. […] In early 2002, they went to a well-known and respected Chinese Medical Hospital in Beijing where Flexible Sigmoidoscopy was performed. Again, they were diagnosed as having active inflammatory bowel disease.
At this time, as previous treatments had no effect, their physician prescribed several traditional Chinese medicines. They administered these for several months, yet no improvement of their symptoms resulted. During the period of February 2000 to the summer of 2002, they also tried various other traditional Chinese medicines due to the continued and very troublesome nature of their disease, but nothing was successful. Upon returning to the United States in 2002, they went to the Mount Sinai Medical Center, a nationally recognized American center for the treatment of inflammatory bowel disease. In October 2002, their new physician again performed a colonoscope, together with a histological examination of two biopsy samples (A and B) (FIG. 8, panel A, before the treatment).
These included skin itch, abdominal cramping, pain and bleeding. They then asked their physician for advice and was instructed to use this medication on an intermittently. However, the side effects continued actually worsened each time the medication was used. They then halted all application of this medication.
The patient voluntarily administered Meisoindigo at a recommended dose of 25 mg, once a day for a scheduled three weeks of treatment. […] After nine weeks of remission (three weeks on the medicine, three weeks off of the medicine, and three weeks on the medicine again), the patient again visited their physician and requested a Flexible Sigmoidoscopy to determine if their remission was subjective or objective. The Flexible Sigmoidoscopy was performed on Nov. 4, 2003. After reviewing the results their physician concluded that their inflammation completely arrested.

[5] = tested on: chronic myeloid leukemia (CML); settings: cited from earlier work
[6] = 25 mg once a day, before treatment 0
[7] = 25 mg once a day, before treatment 1
[8] = 25 mg once a day, before treatment 2

## CN1C(=O)/C(=C2/C(=O)Nc3ccccc32)c2ccccc21 [Meisoindigo]
[1]; 31.25 nM, 24 h, LPS-stimulated THP-1 cells
  reduction of the LPS mediated IL-1β secretion: over 50%
[1]; LPS-stimulated THP-1 cells, LPS alone 100.00
  IL-1β (Inhibition), Percentage of Maximal Response Without Cytotoxicity: 48.76 ± 3.68%
[1]; as low as 31.25 nM (31.25 and 62.5 nM in FIG. 6), 24 h
  effect on IL-1β production: significantly inhibit
[1]; up to 8 μM
  further reduction of IL-1β secretion on increasing the concentration: did not result in further reduction
[2]; 50.0 mg/kg orally once a day
  Granulous Scales (X ± SD): 22.37 ± 6.20
[2]; 100.0 mg/kg orally once a day
  Granulous Scales (X ± SD): 25.98 ± 4.12
[2]; 200.0 mg/kg orally once a day
  Granulous Scales (X ± SD): 31.30 ± 7.92
[3]
  Mitotic Index (X ± SD): 16.06±2.66
[4]; 25 mg once a day, after the first three doses
  clinical response: complete remission
[4]; [6]
  Patient Score After Treatment: Abdominal tenderness: 0
  Patient Score After Treatment: Nocturnal diarrhea: 0
[4]; [7]
  Patient Score After Treatment: Abdominal pain or cramping: 0
  Patient Score After Treatment: Fecal incontinence: 0
  Patient Score After Treatment: Need for antidiarrhea drugs: 0
[4]; [8]
  Patient Score After Treatment: Diarrhea (No. of daily stools): 0
  Patient Score After Treatment: General well-being: 0
  Patient Score After Treatment: Visible blood in stool (% of movements): 0
[4]; after nine weeks of remission (three weeks on, three off, three on)
  Flexible Sigmoidoscopy / pathological examination after treatment: inactive chronic protocolitis suggestive of idiopathic inflammatory bowel disease
[4]; human, in vivo
  total amount of drug needed to obtain a complete cure of the inflammatory bowel disease: 525 mg
[5]; 150 mg per day, China
  side effects reported: very minor side effects
[5]
  total dosage needed to achieve the maximal remission of CML: 8696 mg
